Test results taken from patent publication US4652551A, “Renin inhibiting compounds” (Abbott Laboratories, priority 1985, dated 1987).

Target: T1, human renal renin (Homo sapiens, UniProt P00797)
T1 construct: human renal renin, free from acid proteolytic activity; from tissue; host or cells: human kidney (from the word 'renal')
T1 sequence (P00797 67-406): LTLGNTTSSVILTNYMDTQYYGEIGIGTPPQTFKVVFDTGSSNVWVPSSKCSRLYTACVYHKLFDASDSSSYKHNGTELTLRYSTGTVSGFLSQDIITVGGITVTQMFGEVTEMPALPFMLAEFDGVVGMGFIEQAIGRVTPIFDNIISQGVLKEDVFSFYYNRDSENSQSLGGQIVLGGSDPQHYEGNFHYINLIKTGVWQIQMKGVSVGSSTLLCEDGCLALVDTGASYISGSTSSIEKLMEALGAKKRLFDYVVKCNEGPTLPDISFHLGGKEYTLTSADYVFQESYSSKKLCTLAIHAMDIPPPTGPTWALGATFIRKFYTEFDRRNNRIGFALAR
Assay: In vitro inhibition of human renal renin (angiotensin I formed, measured by radioimmunoassay)
Assay type: biochemical
Conditions: at 10^-5 M compound; human renin substrate (angiotensinogen), 37° C., pH 6.0
Method: At the end of the incubation, the amount of angiotensin I formed is measured by radioimmunoassay and the present inhibition of renin is calculated.

| Inhibition [%] | Compound |
| --- | --- |
| 35 | CC(C)CC(NC(=O)C(C)NC(=O)C(Cc1ccccc1)NC(=O)OC(C)(C)C)C(O)CCc1ccccc1 (stereo not drawn) [Example 1C, Boc-Phe-Ala amide of 4-amino-3-hydroxy-6-methyl-1-phenylheptane] |
| 85 | CC(C)CCC(O)C(CC(C)C)NC(=O)C(C)NC(=O)C(Cc1ccccc1)NC(=O)OC(C)(C)C (stereo not drawn) [Example 2C, Boc-Phe-Ala amide of 4-amino-2,8-dimethyl-5-hydroxynonane] |
| 89 | CC(C)CCC(O)C(CC(C)C)NC(=O)C(Cc1cnc[nH]1)NC(=O)C(Cc1ccccc1)NC(=O)OC(C)(C)C (stereo not drawn) [Example 3, Boc-Phe-His amide of 4-amino-2,8-dimethyl-5-hydroxynonane] |

| Compound | Inhibition [%] |
| --- | --- |
| C=CCC(O)C(CC(C)C)NC(=O)C(C)NC(=O)C(Cc1ccccc1)NC(=O)OC(C)(C)C (stereo not drawn) [Example 4C, Boc-Phe-Ala amide of 5-amino-4-hydroxy-7-methyl-1-octene] | 48 |
| C=CC(C)(C)C(O)C(CC(C)C)NC(=O)C(C)NC(=O)C(Cc1ccccc1)NC(=O)OC(C)(C)C (stereo not drawn) [Example 5C, Boc-Phe-Ala amide of 5-amino-4-hyroxy-3,3,7-trimethyl-1-octene] | 7 |

Same assay, conditions: at 10^-8 M compound; human renin substrate (angiotensinogen), 37° C., pH 6.0

| Inhibition [%] | Compound |
| --- | --- |
| 47 | CC(C)CCC(O)C(CC1CCCCC1)NC(=O)C(Cc1cnc[nH]1)NC(=O)C(Cc1ccccc1)NC(=O)OC(C)(C)C (stereo not drawn) [Example 6C, Boc-Phe-His Amide of 2-Amino-1-cyclohexyl-3-hydroxy-6-methylheptane] |
